Results on 29 compounds are retold here after US12691101B2, “Compound and method for preventing or treating of respiratory diseases comprising the same as an active ingredient” (YONSEI UNIVERSITY, UNIVERSITY - INDUSTRY FOUNDATION (UIF), priority 2019, dated 2026).

The assay addresses T1, human wild-type (WT)-pendrin (Homo sapiens, UniProt O43511).
T1 construct: expressed in transfected cells
T1 sequence (O43511 1-780): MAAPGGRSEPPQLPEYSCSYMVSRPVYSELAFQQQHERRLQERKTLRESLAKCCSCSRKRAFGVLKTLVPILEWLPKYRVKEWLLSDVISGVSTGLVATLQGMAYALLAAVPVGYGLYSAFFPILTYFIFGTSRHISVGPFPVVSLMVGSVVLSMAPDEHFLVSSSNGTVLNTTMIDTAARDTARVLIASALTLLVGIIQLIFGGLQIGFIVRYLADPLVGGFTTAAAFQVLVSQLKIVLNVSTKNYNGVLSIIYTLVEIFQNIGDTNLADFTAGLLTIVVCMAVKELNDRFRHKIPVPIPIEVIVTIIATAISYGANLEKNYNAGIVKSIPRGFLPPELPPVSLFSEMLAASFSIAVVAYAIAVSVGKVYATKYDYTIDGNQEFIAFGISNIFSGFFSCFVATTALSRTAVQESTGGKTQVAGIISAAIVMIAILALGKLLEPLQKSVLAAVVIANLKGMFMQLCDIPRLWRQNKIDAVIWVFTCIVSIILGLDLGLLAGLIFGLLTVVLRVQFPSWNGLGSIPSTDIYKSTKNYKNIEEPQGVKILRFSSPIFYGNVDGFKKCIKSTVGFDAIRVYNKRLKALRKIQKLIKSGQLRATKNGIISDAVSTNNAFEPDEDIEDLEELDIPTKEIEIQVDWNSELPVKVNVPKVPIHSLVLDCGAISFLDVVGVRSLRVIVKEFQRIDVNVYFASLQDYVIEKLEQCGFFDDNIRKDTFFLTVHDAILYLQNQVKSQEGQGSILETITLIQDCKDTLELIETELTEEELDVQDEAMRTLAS
In words: Pendrin-mediated Cl^−/I^− exchange activity, YFP fluorescence in CHO-K1 cells. Conditions: for inhibition at 30 µM: CHO-K1, 30 μM, read-out: Pendrin inhibitory activity at 30 μM (%); for IC50: compounds showing pendrin inhibitory activity of 50% or more at 30 μM, read-out: IC50. Format: cell-based. How it is done: Chinese hamster ovary (CHO)-K1 cells were maintained in a DMEM medium containing 10% fetal bovine serum (FBS), 100 units/ml penicillin and 100 100 μg/ml streptomycin. CHO-K1 cells were stably transfected with pcDNA3.1 encoding halide sensor YFP-H148Q/I152L/F46L and human wild-type (WT)-pendrin. For distribution of primary culture of human nasal cavity epithelium (HNE) cells, passage-2 cells were seeded into transwell-transparent culture inserts with a pore size of 0.45 μm (Costar Co., Cambridge, MA) at a density of 2×10^5 cells/cm^2. The cells were maintained in a 1:1 mixture of Dulbecco's modified Eagle's medium (Lonza, Walkersville, MD) and bronchial epithelial growth medium (Lonza) supplemented with the following growth factors according to the manufacturer's instructions. After immersing the cells for the first 7 days, they were exposed to the apical air interface for the remainder of the culture period. After establishment of the air-liquid interface, the cells were used between 14 and 21 days. At all stages of culture, the cells were maintained at 37° C. under 5% CO2 in an air incubator.
CHO-K1 cells expressing human WT pendrin and YFP-F46L/H148Q/I152L were plated on a 96-well microplate at a density of 2×10^4 cells per well and cultured for 48 hours. Each well of the cell cultured 96-well plate was washed with PBS of 200 μL twice and was filled with HEPES buffer solution of 50 μL, respectively. […] After culturing at 37° C. for 10 minutes, the 96-well plate was positioned on FLUOstar Omega microplate reader (BMG Labtech, Ortenberg, Germany) for fluorescence analysis. By continuously (400 ms per point) recording fluorescence for 1 second (base line), each well was individually analyzed for pendrin-mediated I^− inflow, and then at 1 second, 50 μL of NaI-substituted HEPES buffer solution (NaI replacing NaCl) was added using a liquid injector and the YFP fluorescence was recorded for 5 seconds. The initial iodide inflow rate was determined from the initial slope of fluorescence by nonlinear regression, after injection the iodide (See FIG. 1).
For measurement of Cl^−/I^− exchange activity, YFP fluorescence was measured in pendrin and halide sensor YFP expressing CHO-K1 cells. Each well of the cell cultured 96-well plate was washed with PBS of 200 μL twice, and was filled with HEPES buffer solution (140 mM NaCl, 5 mM KCl, 1 mM MgCl2, 1 mM CaCl2, 10 mM glucose and 10 mM HEPES (pH 7.4)), respectively. […] After culturing at 37° C. for 10 minutes, the 96-well plate was positioned on FLUOstar Omega microplate reader (BMG Labtech, Ortenberg, Germany) for fluorescence analysis.
By continuously (400 ms per point) recording fluorescence for 1 second (base line), each well was individually analyzed for pendrin-mediated I^− inflow, and then at 1 second, 50 μL of NaI-substituted HEPES buffer solution (140 mM NaI, 5 mM KCl, 1 mM MgCl2, 1 mM CaCl2, 10 mM glucose and 10 mM HEPES (pH 7.4)) was added using a liquid injector and the YFP fluorescence was recorded for 5 seconds. The initial iodide inflow rate was determined from the initial slope of fluorescence by nonlinear regression, after injection the iodide.

A word on the IC50: it is the concentration at which inhibition is half-maximal.

For `O=C1OC(c2ccc(C(F)(F)F)cc2)=NC1=Cc1cccs1` [F1, 4-(thiophen-2-ylmethylene)-2-(4-(trifluoromethyl)phenyl)oxazol-5 (4H)-one], the inhibition at 30 µM was 2.6%.

For `CC(C)(C)c1ccc(C2=NC(=Cc3cncs3)C(=O)O2)cc1` [F2, 2-(4-(tert-butyl)phenyl)-4-(thiazol-5-ylmethylene)oxazol-5(4H)-one], the inhibition at 30 µM amounted to 57.5% and the IC50 was found to be 26.9 ± 2.95 µM.

`Cc1[nH]c2ccccc2c1C=C1N=C(c2ccc(C(C)(C)C)cc2)OC1=O` [F3, 2-(4-(tert-butyl)phenyl)-4-((2-methyl-1H-indol-3-yl1)methylene)oxazol-5(4H)-one]: the inhibition at 30 µM stood at 4.3%.

For `CC(C)(C)OC(=O)n1cc(C=C2N=C(c3ccc(C(C)(C)C)cc3)OC2=O)c2ccccc21` [F4, tert-butyl 3-((2-(4-(tert-butyl)phenyl)-5-oxooxazol-4(5H)-ylidene)methyl)-1H-indol-1-carboxylate], the inhibition at 30 µM came to 2.6%.

On to `N#Cc1ccc(C2=NC(=Cc3cccs3)C(=O)O2)cc1` [F5, 4-(5-Oxo-4-(thiophen-2-ylmethylene)-4,5-dihydrooxazol-2-yl)benzonitrile], for which the inhibition at 30 µM turned out to be 3.5%.

Take `Cn1cccc1C=C1N=C(c2ccc(C(C)(C)C)cc2)OC1=O` [F6, 2-(4-(tert-butyl)phenyl)-4-((1-methyl-1H-pyrrol-2-yl)methylene)oxazol-5 (4H)-one]: the inhibition at 30 µM worked out at 3.7%.

Regarding `COC(=O)c1ccc(C2=NC(=Cc3cccs3)C(=O)O2)cc1` [F7, Methyl 4-(5-oxo-4-(thiophen-2-ylmethylene)-4,5-dihydrooxazol-2-yl)benzoate], the inhibition at 30 µM was found to be 2.8%.

As for `Cc1ncsc1C=C1N=C(c2ccc(C(C)(C)C)cc2)OC1=O` [F8, 2-(4-(tert-butyl)phenyl)-4-((4-methylthiazol-5-yl)methylene)oxazol-5 (4H)-one], the inhibition at 30 µM amounted to 72.5% and the IC50 came to 20.5 ± 1.69 µM.

As for `CC(C)(C)c1ccc(C2=NC(=Cc3ccsc3)C(=O)O2)cc1` [F9, 2-(4-(tert-butyl)phenyl)-4-(thiophen-3-ylmethylene)oxazol-5 (4H)-one], the inhibition at 30 µM was found to be 52.5% and the IC50 was 28.7 ± 2.25 µM.

As for `CC(C)(C)c1ccc(C2=NC(=Cc3cc4ccccc4s3)C(=O)O2)cc1` [F11, 4-(Benzo[b]thiophen-2-ylmethylene)-2-(4-(tert-butyl)phenyl)oxazol-5 (4H)-one], the inhibition at 30 µM worked out at 3.6%.

As to `CC(C)c1ccc(C2=NC(=Cc3ccc[nH]3)C(=O)O2)cc1` [F12, 4-((1H-pyrrol-2-yl)methylene)-2-(4-isopropylphenyl)oxazol-5(4H)-one], the inhibition at 30 µM was 100% and the half-maximal inhibitory concentration (IC50) was 1 ± 0.15 µM.

Consider `CC(C)(C)c1ccc(C2=NC(=Cc3ccnc4ccccc34)C(=O)O2)cc1` [F13, 2-(4-(tert-butyl)phenyl)-4-(quinolin-4-ylmethylene)oxazol-5 (4H)-one], for which the inhibition at 30 µM came out at 3.8%.

`CC(C)Cc1ccc(C2=NC(=Cc3cccs3)C(=O)O2)cc1` [F14, 2-(4-Isobutylphenyl)-4-(thiophen-2-ylmethylene)oxazol-5 (4H)-one]: the inhibition at 30 µM was 33.1%.

For `CC(C)Cc1ccc(C2=NC(=Cc3ccsc3)C(=O)O2)cc1` [F15, 2-(4-Isobutylphenyl)-4-(thiophen-3-ylmethylene)oxazol-5 (4H)-one], the inhibition at 30 µM was 3.8%.

On to `CC(C)c1ccc(C2=NC(=Cc3csc4ccccc34)C(=O)O2)cc1` [F16, 4-(Benzo[b]thiophen-3-ylmethylene)-2-(4-isopropylphenyl)oxazol-5(4H)-one], for which the inhibition at 30 µM turned out to be 3.1%.

For the compound `O=C1OC(c2ccc(C(F)(F)F)cc2)=NC1=Cc1ccc[nH]1` [F17, 4-((1H-pyrrol-2-yl)methylene)-2-(4-(trifluoromethyl)phenyl)oxazol-5(4H)-one], the inhibition at 30 µM was determined as 6.9%.

With `O=C1OC(c2ccc(C(F)(F)F)cc2)=NC1=Cc1ccsc1` [F18, 4-(Thiophen-3-ylmethylene)-2-(4-(trifluoromethyl)phenyl)oxazol-5(4H)-one], the inhibition at 30 µM was 3.4%.

For the compound `CC(C)Cc1ccc(C2=NC(=Cc3ccco3)C(=O)O2)cc1` [F19, 4-(Furan-2-ylmethylene)-2-(4-isobutylphenyl)oxazol-5 (4H)-one], the inhibition at 30 µM was 54.8% and the IC50 was 20.1 ± 2.46 µM.

In the case of `CC(C)Cc1ccc(C2=NC(=Cc3ccc[nH]3)C(=O)O2)cc1` [F20, 4-((1H-pyrrol-2-yl)methylene)-2-(4-isobutylphenyl)oxazol-5 (4H)-one], the inhibition at 30 µM stood at 82.9% and the IC50 was found to be 2.8 ± 0.26 µM.

As to `CC(C)Cc1ccc(C2=NC(=Cc3csc4ccccc34)C(=O)O2)cc1` [F21, 4-(Benzo[b]thiophen-3-ylmethylene)-2-(4-isobutylphenyl)oxazol-5(4H)-one], the inhibition at 30 µM amounted to 2.9%.

In the case of `Cc1ncsc1C=C1N=C(c2ccc(Br)cc2)OC1=O` [F22, 2-(4-Bromophenyl)-4-((4-methylthiazol-5-yl)methylene)oxazol-5(4H)-one], the inhibition at 30 µM stood at 2.4%.

In the case of `O=C1OC(C2CCCCC2)=NC1=Cc1cccs1` [F23, 2-Cyclohexyl-4-(thiophen-2-ylmethylene)oxazol-5 (4H)-one], the inhibition at 30 µM stood at 2.1%.

Turning to `Cc1ncsc1C=C1N=C(c2ccc(-c3ccccc3)cc2)OC1=O` [F24, 2-([1,1′-biphenyl]-4-yl)-4-((4-methylthiazol-5-yl)methylene)oxazol-5 (4H)-one], the inhibition at 30 µM worked out at 3.6%.

`O=C1OC(Cc2ccc(-c3ccccc3)cc2)=NC1=Cc1ccc[nH]1` [F25, 4-((1H-pyrrol-2-yl)methylene)-2-([1,1′-biphenyl]-4-ylmethyl)oxazol-5(4H)-one]: the inhibition at 30 µM worked out at 3.8%.

`CCCCc1ccc(C2=NC(=Cc3ccc[nH]3)C(=O)O2)cc1` [F26, 4-((1H-pyrrol-2-yl)methylene)-2-(4-butylphenyl)oxazol-5(4H)-one]: the inhibition at 30 µM stood at 69.9% and the IC50 came out at 12.8 ± 1.55 µM.

In the case of `CC(C)(C)c1ccc(C2=NC(=Cc3cccn3-c3ccccc3)C(=O)O2)cc1` [F27, 2-(4-(tert-butyl)phenyl)-4-((1-phenyl-1H-pyrrol-2-yl)methylene)oxazol-5 (4H)-one], the inhibition at 30 µM was determined as 2.8%.

`O=C1OC(Cc2ccc(-c3ccccc3)cc2)=NC1=Cc1cccs1` [F28, 2-([1,1′-biphenyl]-4-ylmethyl)-4-(thiophen-2-ylmethylene)oxazol-5 (4H)-one]: the inhibition at 30 µM came out at 2.2%.

For `O=C1OC(c2ccc3c(c2)CCC3)=NC1=Cc1cccs1` [F29, 2-(2,3-dihydro-1H-indene-5-yl)-4-(thiophen-2-ylmethylene)oxazol-5 (4H)-one], the inhibition at 30 µM was 3.3%.

In the case of `O=C1OC(c2cccc3ccccc23)=NC1=Cc1ccc[nH]1` [F30, 4-((1H-pyrrol-2-yl)methylene)-2-(naphthalen-1-yl)oxazol-5(4H)-one], the inhibition at 30 µM turned out to be 3.9%.
